Assay results as given in article PMC10042540, “Targeting oncogenic KRasG13C with nucleotide-based covalent inhibitors” (eLife, 2023).

Columns and labels:
tErk = assay: Electroporation into HeLa cells, western blot quantification; format: cell-based, human; conditions: for tErk mean fold change: mean of cell lysates
Method: (§1) HeLa cells were obtained from the American Type Culture Collection (ATCC) and were cultured in DMEM medium (Gibco) supplemented with 10% fetal bovine serum (FBS) (PAN-Biotech) and 1% penicillin/streptomycin (Gibco). Cells were cultured in a humidified incubator at 37 °C in the presence of 5% CO2. The identity of the cells was validated by STR profiling and the cells were tested negative for mycoplasma contamination.
(§2) Electroporation of full-length KRas constructs (KRasWT, KRasG13C, KRasG13C-edaGDP, KRasG13C:acetyledaGDP and KRasG13C-edaGppCp) was performed based on the protocol described by [Alex et al., 2019] using the Neon Transfection System Kit (Thermo Fisher). For electroporation, 3 million cells per experiment were harvested by trypsinization, washed with PBS, and resuspended in 85 µL of the electroporation buffer R (Thermo Fisher). Increasing amounts of recombinant protein samples for each construct (0, 50, 100, 200 and 300 µg) were diluted 1:1 in buffer R followed by the addition of 30 µL of this protein master mix to the cell suspension. This cellular slurry was loaded into a […] Neon Pipette Tip (Thermo Fisher) and electroporated with 2x35 ms pulses at 1000 V. After electroporation, the cells were washed twice with PBS (15 mL) to remove non-internalized extracellular protein and the cell pellet was resuspended in 2 mL complete growth media. Cells were transferred into six-well tissue culture plates (Sarstedt) and incubated for 24 hr at 37 °C and 5% CO2 in a humidified incubator for recovery before being processed for western blotting analysis.
(§3) After recovery of the electroporation, cells were washed twice with ice-cold PBS and lysed in 100 µL of phosphatase and protease inhibitor containing RIPA buffer (Cell Signaling Technology). Cells were incubated on ice for 30 min and then harvested by scraping followed by centrifugation at 14,000 rpm for 10 min at 4 °C. Protein concentrations were determined using the Pierce BCA protein assay (Thermo) following the manufacturer’s recommended procedure. Equal amounts of protein (10 µg) were analyzed by SDS-PAGE and transferred to Immobilon-FL PVDF membranes (Merck Millipore) using Pierce 1-step transfer buffer (Thermo) and the Pierce Power Blotter (Thermo). Membranes were washed with ddH2O for 5 min, blocked with OdysseyBlocking Buffer TBS (Li-Cor) for 1 hr at room temperature and then incubated with primary antibodies diluted in OdysseyBlocking Buffer TBS overnight at 4 °C with gentle agitation. KRas (Sigma Aldrich, SAB1404011-100UG), pcRafS338 (CST, 9427), tAkt1 (CST, 2938), pAktS473 (CST, 4060), tErk (CST, 4696), pErkT202/Y204 (CST, 4370), pS6S235/236 (CST, 4858), and β-actin (CST, 4970/Sigma-Aldrich, A5441) antibodies were used to detect the individual proteins. After primary antibody incubation, membranes were washed three times with TBS-T (50 mM Tris, 150 mM NaCl, 0.05% Tween 20, pH 7.4) for 5 min before being incubated with secondary antibodies (anti-mouse IgG (H+L) (DyLight 680 Conjugate) (CST, 5470) / anti-rabbit IgG (H+L) (DyLight 800 4 X PEG Conjugate) (CST, 5151)) diluted in OdysseyBlocking Buffer TBS for 1 hr at room temperature with gentle agitation. After secondary antibody incubation, the membranes were washed three times for 5 min with TBS-T and then scanned using an OdysseyCLx imaging system (Li-Cor). Quantification of protein levels from western blots was performed using Empiria Studio (Li-Cor) (Figure 3B, C, Figure 3—figure supplements 6–9).

tAkt1 = assay: as above; format: cell-based, human; conditions: for tAkt mean fold change: mean of cell lysates
Method: as §1, §2, §3

pS6S235/236 = assay: as above; format: cell-based, human; conditions: for pS6 mean fold change: mean of cell lysates
Method: as §1, §2, §3

[1] = system: Ras pathway (pcRaf, pAkt, pErk, pS6); assay: Electroporation into HeLa cells, western blot of downstream signalling; format: cell-based, human; conditions: electroporation of 50-300 µg protein
Method: as §1, §2
After recovery of the electroporation, cells were washed twice with ice-cold PBS and lysed in 100 µL of phosphatase and protease inhibitor containing RIPA buffer (Cell Signaling Technology). Cells were incubated on ice for 30 min and then harvested by scraping followed by centrifugation at 14,000 rpm for 10 min at 4 °C. Protein concentrations were determined using the Pierce BCA protein assay (Thermo) following the manufacturer’s recommended procedure. Equal amounts of protein (10 µg) were analyzed by SDS-PAGE and transferred to Immobilon-FL PVDF membranes (Merck Millipore) using Pierce 1-step transfer buffer (Thermo) and the Pierce Power Blotter (Thermo). Membranes were washed with ddH2O for 5 min, blocked with OdysseyBlocking Buffer TBS (Li-Cor) for 1 hr at room temperature and then incubated with primary antibodies diluted in OdysseyBlocking Buffer TBS overnight at 4 °C with gentle agitation. […] Quantification of protein levels from western blots was performed using Empiria Studio (Li-Cor) (Figure 3B, C, Figure 3—figure supplements 6–9).

[2] = system: farnesyltransferase (FTase); assay: In vitro farnesylation; format: biochemical; conditions: full-length protein, FPP, ESI-MS
Method: 50 µM of full-length KRas protein was mixed with 250 µM farnesyl pyrophosphate (FPP) and 10 µM farnesyltransferase (FTase). After incubation at room temperature for 1 hr the mixture was centrifugated at 14,000 rpm for 10 min at 4 °C and analyzed via ESI-MS (Figure 3—figure supplement 4).

SOS = assay: Guanine nucleotide-exchange factor assay (mantdGDP fluorescence); format: biochemical
Method: SOS-catalysed nucleotide exchange was monitored at 25 °C in a FluoroMax-3 spectrofluorometer (excitation at 360 nm, emission at 440 nm) in 20 mM HEPES (pH 7.5), 100 mM NaCl, 2 mM MgCl2, and 1 mM TCEP. 5 µM KRas1-169 was mixed with 10 µM mantdGDP and subsequently with different concentrations of SOS (0.25 µM and 0.5 µM) (Figure 3A; Figure 3—figure supplement 1).

**Q.** Which tErk fold change (tErk; 50 µg, Cell lysate 1) does the source give for “KRasG13C-edaGDP: KRasG13C covalently locked with edaGDP at Cys13” here?
**A.** The tErk fold change was 0.84.

**Q.** And the tErk fold change (tErk; 50 µg, Cell lysate 2)?
**A.** The tErk fold change was 2.08.

**Q.** And the tErk fold change (tErk; 50 µg, Cell lysate 3)?
**A.** The tErk fold change was 0.64.

**Q.** What about the “tErk mean fold change” value (tErk; 50 µg) of the same substance?
**A.** The value was 1.19.

**Q.** What about the tErk fold change (tErk; 100 µg, Cell lysate 1) of the same substance?
**A.** Its tErk fold change is 0.91.

**Q.** And the tErk fold change (tErk; 100 µg, Cell lysate 2)?
**A.** The tErk fold change was 1.86.

**Q.** And the tErk fold change (tErk; 100 µg, Cell lysate 3)?
**A.** Its tErk fold change is 0.78.

**Q.** And the “tErk mean fold change” value (tErk; 100 µg)?
**A.** Its value is 1.18.

**Q.** And the tErk fold change (tErk; 200 µg, Cell lysate 1)?
**A.** The tErk fold change was 1.12.

**Q.** What about the tErk fold change (tErk; 200 µg, Cell lysate 2) of the same substance?
**A.** Its tErk fold change is 1.76.

**Q.** And the tErk fold change (tErk; 200 µg, Cell lysate 3)?
**A.** Its tErk fold change is 0.74.

**Q.** What about the “tErk mean fold change” value (tErk; 200 µg) of the same substance?
**A.** Its value is 1.21.

**Q.** What about the tErk fold change (tErk; 300 µg, Cell lysate 1) of the same substance?
**A.** The tErk fold change was 1.26.

**Q.** What about the tErk fold change (tErk; 300 µg, Cell lysate 2) of the same substance?
**A.** The tErk fold change was 1.23.

**Q.** What about the tErk fold change (tErk; 300 µg, Cell lysate 3) of the same substance?
**A.** The tErk fold change was 0.72.

**Q.** And the “tErk mean fold change” value (tErk; 300 µg)?
**A.** The value was 1.07.

**Q.** What about the tAkt fold change (tAkt1; 50 µg, Cell lysate 1) of the same substance?
**A.** The tAkt fold change was 0.65.

**Q.** What about the tAkt fold change (tAkt1; 50 µg, Cell lysate 2) of the same substance?
**A.** Its tAkt fold change is 1.23.

**Q.** What about the tAkt fold change (tAkt1; 50 µg, Cell lysate 3) of the same substance?
**A.** The tAkt fold change was 1.06.

**Q.** What about the “tAkt mean fold change” value (tAkt1; 50 µg) of the same substance?
**A.** Its value is 0.98.

**Q.** And the tAkt fold change (tAkt1; 100 µg, Cell lysate 1)?
**A.** The tAkt fold change was 0.92.

**Q.** What about the tAkt fold change (tAkt1; 100 µg, Cell lysate 2) of the same substance?
**A.** The tAkt fold change was 1.65.

**Q.** What about the tAkt fold change (tAkt1; 100 µg, Cell lysate 3) of the same substance?
**A.** The tAkt fold change was 0.97.

**Q.** And the “tAkt mean fold change” value (tAkt1; 100 µg)?
**A.** The value was 1.18.

**Q.** And the tAkt fold change (tAkt1; 200 µg, Cell lysate 1)?
**A.** The tAkt fold change was 1.06.

**Q.** And the tAkt fold change (tAkt1; 200 µg, Cell lysate 2)?
**A.** The tAkt fold change was 1.22.

**Q.** And the tAkt fold change (tAkt1; 200 µg, Cell lysate 3)?
**A.** Its tAkt fold change is 0.78.

**Q.** And the “tAkt mean fold change” value (tAkt1; 200 µg)?
**A.** The value was 1.02.

**Q.** What about the tAkt fold change (tAkt1; 300 µg, Cell lysate 1) of the same substance?
**A.** The tAkt fold change was 0.92.

**Q.** And the tAkt fold change (tAkt1; 300 µg, Cell lysate 2)?
**A.** Its tAkt fold change is 0.97.

**Q.** What about the tAkt fold change (tAkt1; 300 µg, Cell lysate 3) of the same substance?
**A.** The tAkt fold change was 0.68.

**Q.** And the “tAkt mean fold change” value (tAkt1; 300 µg)?
**A.** Its value is 0.86.

**Q.** What about the pS6 fold change (pS6S235/236; 50 µg, Cell lysate 1) of the same substance?
**A.** Its pS6 fold change is 0.80.

**Q.** What about the pS6 fold change (pS6S235/236; 50 µg, Cell lysate 2) of the same substance?
**A.** Its pS6 fold change is 1.31.

**Q.** What about the pS6 fold change (pS6S235/236; 50 µg, Cell lysate 3) of the same substance?
**A.** The pS6 fold change was 0.76.

**Q.** What about the “pS6 mean fold change” value (pS6S235/236; 50 µg) of the same substance?
**A.** The value was 0.96.

**Q.** And the pS6 fold change (pS6S235/236; 100 µg, Cell lysate 1)?
**A.** Its pS6 fold change is 0.91.

**Q.** What about the pS6 fold change (pS6S235/236; 100 µg, Cell lysate 2) of the same substance?
**A.** The pS6 fold change was 1.13.

**Q.** What about the pS6 fold change (pS6S235/236; 100 µg, Cell lysate 3) of the same substance?
**A.** Its pS6 fold change is 0.75.

**Q.** And the “pS6 mean fold change” value (pS6S235/236; 100 µg)?
**A.** Its value is 0.93.

**Q.** And the pS6 fold change (pS6S235/236; 200 µg, Cell lysate 1)?
**A.** Its pS6 fold change is 1.23.

**Q.** What about the pS6 fold change (pS6S235/236; 200 µg, Cell lysate 2) of the same substance?
**A.** The pS6 fold change was 1.03.

**Q.** And the pS6 fold change (pS6S235/236; 200 µg, Cell lysate 3)?
**A.** Its pS6 fold change is 0.88.

**Q.** What about the “pS6 mean fold change” value (pS6S235/236; 200 µg) of the same substance?
**A.** The value was 1.05.

**Q.** What about the pS6 fold change (pS6S235/236; 300 µg, Cell lysate 1) of the same substance?
**A.** The pS6 fold change was 0.98.

**Q.** And the pS6 fold change (pS6S235/236; 300 µg, Cell lysate 2)?
**A.** The pS6 fold change was 0.98.

**Q.** What about the pS6 fold change (pS6S235/236; 300 µg, Cell lysate 3) of the same substance?
**A.** Its pS6 fold change is 0.76.

**Q.** What about the “pS6 mean fold change” value (pS6S235/236; 300 µg) of the same substance?
**A.** Its value is 0.91.

**Q.** And the “downstream signalling (pcRaf, pAkt, pErk, pS6)” value [1]?
**A.** Its value is “unable to induce these effects”.

**Q.** And the in vitro farnesylation [2]?
**A.** The in vitro farnesylation was “fully farnesylated”.

**Q.** What about the SOS-catalysed nucleotide exchange (SOS; 5 µM KRas1-169, 10 µM mantdGDP, 0.25 or 0.5 µM SOS) of the same substance?
**A.** The SOS-catalysed nucleotide exchange was “unable to do so”.

**Q.** What about the “intrinsic nucleotide exchange rate” value (SOS; absence of SOS) of the same substance?
**A.** Its value is “abrogated”.
